Counter-ions that a name gives are not always drawn. Like-named read-outs stand apart in the source and are kept apart here.
Tests used:
[1] = target: T1, tyrosinase (derived from mushrooms) (Agaricus bisporus, UniProt C7FF04); assay: Test for evaluating inhibition of tyrosinase activity (DOPA substrate, absorbance at 475 nm); assay type: biochemical
T1 construct: purchased Sigma
Procedure: (§1) After 2 minutes of the addition, the test solution was subjected to measurement of absorbance at 475 nm. Thus-obtained absorbance value was defined as D1. As a control, the same measurement was conducted on a test solution in which each sample was replaced with purified water, and the obtained absorbance value was defined as D2. An inhibition rate of tyrosinase activity was calculated by the following formula.

[2] = test system: tyrosinase (derived from mushrooms); assay: as above; assay type: biochemical; conditions: for Inhibition rate of tyrosinase activity in the case of conbining human manganese SOD/Inhibition rate of tyrosinase activity in the case without addition of human manganese SOD: (B-1) 0 unit/mL; for Tyrosinase activity inhibition rate in the case of using both components/Sum of tyrosinase activity inhibition rate in the case of using each component alone: no second component
Procedure: as §1

[3] = see paragraphs 0060, 0061 and 0072 of Patent Document 6; cited from earlier work

T1 sequence (C7FF04 whole entry): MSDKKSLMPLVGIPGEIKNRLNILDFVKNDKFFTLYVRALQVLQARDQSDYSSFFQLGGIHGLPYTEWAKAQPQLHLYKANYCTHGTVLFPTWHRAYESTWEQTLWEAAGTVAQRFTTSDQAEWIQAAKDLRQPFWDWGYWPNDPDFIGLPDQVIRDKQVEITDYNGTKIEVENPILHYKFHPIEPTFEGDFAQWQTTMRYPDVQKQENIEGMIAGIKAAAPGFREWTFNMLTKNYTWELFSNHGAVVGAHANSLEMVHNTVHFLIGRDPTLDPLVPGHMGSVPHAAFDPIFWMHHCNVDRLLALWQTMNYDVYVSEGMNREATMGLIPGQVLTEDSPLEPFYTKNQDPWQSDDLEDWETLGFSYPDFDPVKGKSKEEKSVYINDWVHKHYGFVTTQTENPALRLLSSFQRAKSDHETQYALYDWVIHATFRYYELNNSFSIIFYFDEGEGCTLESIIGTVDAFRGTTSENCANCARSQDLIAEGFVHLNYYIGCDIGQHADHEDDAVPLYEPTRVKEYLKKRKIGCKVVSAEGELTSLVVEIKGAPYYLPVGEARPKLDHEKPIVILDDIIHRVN

With `OC[C@H]1O[C@@H](Oc2ccc(O)cc2)[C@H](O)[C@@H](O)[C@@H]1O` [arbutin, reference compound] the “inhibition rate of tyrosinase activity” value ([1]; arbutin solely, 3.0% by mass) was 71.3%.

For `CCOC1=C(O)C(=O)O[C@@H]1[C@@H](O)CO` [3-O-ethylascorbic acid, reference compound], the inhibition at 2500 µg/mL ([1]; (B-2) component only, 2.5 mg/mL, read-out: Inhibition rate of tyrosinase activity (%), (B) component only) was 29.9%.

With “zinc chelate compound of N-(6,8-dimercaptooctanoyl)-L-histidine sodium salt [histidine dithiooctanamide (Na/zinc)]” the “Inhibition rate of tyrosinase activity in the case of conbining human manganese SOD/Inhibition rate of tyrosinase activity in the case without addition of human manganese SOD” value ([2]; (A) 1.08 μg/mL) was 1.00, the “Tyrosinase activity inhibition rate in the case of using both components/Sum of tyrosinase activity inhibition rate in the case of using each component alone” value ([2]; (A) 1.08 μg/mL) was 1.00 and the “Inhibition rate of tyrosinase activity in the case of conbining human manganese SOD/Inhibition rate of tyrosinase activity in the case without addition of human manganese SOD” value ([2]; (A) 2.15 μg/mL) was 1.00. For the same molecule, the “Tyrosinase activity inhibition rate in the case of using both components/Sum of tyrosinase activity inhibition rate in the case of using each component alone” value ([2]; (A) 2.15 μg/mL) was 1.00, the “Inhibition rate of tyrosinase activity in the case of conbining human manganese SOD/Inhibition rate of tyrosinase activity in the case without addition of human manganese SOD” value ([2]; (A) 3.23 μg/mL) was 1.00 and the “Inhibition rate of tyrosinase activity in the case of conbining human manganese SOD/Inhibition rate of tyrosinase activity in the case without addition of human manganese SOD” value ([2]; (A) 4.31 μg/mL) was 1.00. For the same molecule, the “Inhibition rate of tyrosinase activity (%)” value ([1]; histidine dithiooctanamide (Na/zinc) solely, 1.08 μg/mL (2.5 μM)) was 13.2%, the “Inhibition rate of tyrosinase activity (%)” value ([1]; histidine dithiooctanamide (Na/zinc) solely, 2.15 μg/mL (5 μM)) was 25.3% and the “Inhibition rate of tyrosinase activity (%)” value ([1]; histidine dithiooctanamide (Na/zinc) solely, 3.23 μg/mL (7.5 μM)) was 53.6%. For the same molecule, the “Inhibition rate of tyrosinase activity (%)” value ([1]; histidine dithiooctanamide (Na/zinc) solely, 4.31 μg/mL (10 μM)) was 68.9%.

For `O=C1O[C@H]([C@@H](O)CO)C([O-])=C1OS(=O)(=O)[O-].[Na+].[Na+]` [Disodium ascorbyl sulfate, reference compound], the “Inhibition rate of tyrosinase activity (%), (B) component only” value (“Inhibition rate … (%), (B) component only” below) ([1]; (B-2) component only, 2.5 mg/mL) was 40.5%.

In the case of `O=C1O[C@H]([C@@H](O)CO)C([O-])=C1OP(=O)([O-])[O-].O=C1O[C@H]([C@@H](O)CO)C([O-])=C1OP(=O)([O-])[O-].[Mg+2].[Mg+2].[Mg+2]` [Magnesium ascorbyl phosphate, magnesium ascorbyl phosphate, reference compound], the “Inhibition rate … (%), (B) component only” value ([1]; (B-2) component only, 5 mg/mL) is reported as 11.1%.

For `O=C1O[C@H]([C@@H](O)CO)C([O-])=C1OP(=O)([O-])[O-].[Na+].[Na+].[Na+]` [Sodium ascorbyl phosphate, sodium ascorbyl phosphate, reference compound], the “Inhibition rate … (%), (B) component only” value ([1]; (B-2) component only, 5 mg/mL) was 15.6%.

Work on `O=C1O[C@H]([C@@H](O)CO)C(O)=C1O` [Ascorbic acid, ascorbic acid, reference compound] yielded an inhibition at 10 µg/mL ([1]; read-out: Inhibition rate of tyrosinase activity (%), (B) component only) of 28.7%.

`Cc1ncc(CO)c(CO)c1O` [Pyridoxine hydrochloride, pyridoxine hydrochloride, reference compound] showed an inhibition at 5000 µg/mL ([1]; read-out: Inhibition rate of tyrosinase activity (%)) of 42.9%.

For `O=C(O)CCCCC1CCSS1` (stereo not drawn) [α-lipoic acid, 6,8-dithiooctanoic acid, reference compound], the “Tyrosinase activity inhibition rate in the case of using both components/Sum of tyrosinase activity inhibition rate in the case of using each component alone” value ([2]; α-lipoic acid 4.31 μg/mL) was 1.00 and the “Inhibition rate of tyrosinase activity (%)” value ([1]; α-lipoic acid solely, 4.31 μg/mL) was 0.7%.

In the case of `O=C1O[C@H]([C@@H](O)CO)C(O)=C1O[C@H]1O[C@H](CO)[C@@H](O)[C@H](O)[C@H]1O` [ascorbyl glucoside, 2-O-α-D-glucopyranosyl-L-ascorbic acid], the “inhibition rate of tyrosinase activity” value ([1]; ascorbic acid derivative (ascorbyl glucoside) solely, 2.0% by mass) is reported as 21.9%, the inhibition at 5000 µg/mL ([1]; ascorbyl glucoside solely, 5 mg/mL, read-out: Inhibition rate of tyrosinase activity (%)) is reported as 8.4% and the inhibition at 10000 µg/mL ([1]; ascorbyl glucoside solely, 10 mg/mL, read-out: Inhibition rate of tyrosinase activity (%)) is reported as 15.4%. It also gave an inhibition at 20000 µg/mL ([1]; ascorbyl glucoside solely, 20 mg/mL, read-out: Inhibition rate of tyrosinase activity (%)) of 26.8%.

B1: MHS:Mn-SOD: human mutant manganese SOD, third amino acid from N-terminus serine substituted with arginine (Patent Document 6) (protein, UniProt P04179 25-222, looked up, variant S3R)
Superoxide dismutase [Mn], …: KHRLPDLPYDYGALEPHINAQIMQLHHSKHHAAYVNNLNVTEEKYQEALAKGDVTAQIALQPALKFNGGGHINHSIFWTNLSPNGGGEPKGELLEAIKRDFGSFDKFKEKLTAASVGVQGSGWGWLGFNKERGHLQIAACPNQDPLQGTTGLIPLLGIDVWEHAYYLQYKNVRPDYLKAIWNVINWENVTERYMACKK
For B1, the isoelectric point [3] is given as “about 8.2”.

B2: human manganese SOD: human manganese superoxide dismutase, "yeast extract (SOD)" commercially available from Biox Technologies, 3,000 units/mL (protein, UniProt P04179 25-222, looked up)
Superoxide dismutase [Mn], …: KHSLPDLPYDYGALEPHINAQIMQLHHSKHHAAYVNNLNVTEEKYQEALAKGDVTAQIALQPALKFNGGGHINHSIFWTNLSPNGGGEPKGELLEAIKRDFGSFDKFKEKLTAASVGVQGSGWGWLGFNKERGHLQIAACPNQDPLQGTTGLIPLLGIDVWEHAYYLQYKNVRPDYLKAIWNVINWENVTERYMACKK
In the case of B2, the “Inhibition rate of tyrosinase activity (%)” value ([1]; human manganese SOD solely, 3 units/mL) is reported as 4.53%, the “Inhibition rate of tyrosinase activity (%)” value ([1]; human manganese SOD solely, 3 units/mL, listed as (B-1) component) is reported as 4.5% and the “Inhibition rate of tyrosinase activity (%)” value ([1]; human manganese SOD solely, 15 units/mL) is reported as 3.74%. The “Inhibition rate of tyrosinase activity (%)” value ([1]; human manganese SOD solely, 15 units/mL, listed as (B-1) component) was 3.7%, the “Inhibition rate of tyrosinase activity (%)” value ([1]; human manganese SOD solely, 150 units/mL) was 4.66% and the “Inhibition rate of tyrosinase activity (%)” value ([1]; human manganese SOD solely, 150 units/mL, listed as (B-1) component) was 4.7%.

Reference: US10632089B2, “Tyrosinase activity inhibitor and external preparation for skin” (JO Cosmetics Co., Ltd., priority 2015, dated 2020)
